This note sets out measurements from patent publication US20230331601A1, “METHOD FOR WATER PURIFICATION AND SANITIZATION” (YISSUM RESEARCH DEVELOPMENT COMPANY OF THE HEBREW …, priority 2020, published 2023).

What all share (type): physicochemical
The nature of data set [1]: Decolorization of Rhodamine B solution monitored with UV-Vis spectroscopy. Conditions: 125 ppm RhB solution (Example 2 conditions). An excerpt:
UV-Vis spectroscopy: 1800 UV spectrophotometer, Shimadzu, Japan.
Rhodamine B (RhB) is a water-soluble chemical dye which is commonly used as a benchmark to assess the potency of oxidants to decompose organic pollutants in aqueous solution and measure the rate of degradation. De-colorization of RhB solution, that is, the disappearance of the characteristic intense pink color, is readily visible as the decomposition of the dye advances under the action of the tested oxidant and the oxidation reaction can be monitored with UV-Vis spectroscopy. […] Decolorization of 1000 ppm and 125 ppm RhB solutions was completed within eleven minutes and two minutes, respectively, i.e., well before the end of the experiments.

Data set [2] is described as follows: Degradation of carbamazepine by sodium hydroxide and hydrogen peroxide with phase transfer catalyst and added oxygen (LC-MS). Here is the method:
A 50 ml round bottom flask equipped with a magnetic stirrer was charged with 10 ml of water polluted with 1-100 ppm of carbamazepine (concentrations of 1, 10 and 100 ppm were examined). Sodium hydroxide (0.5 g) was rapidly added followed by addition of 0.02 ml of a phase transfer catalyst (Aliquat 336) Next, 1 ml of aqueous hydrogen peroxide (30% solution) was introduced over 5 minutes. After the addition of hydrogen peroxide, the mixture was held under stirring and pure oxygen was bubbled to the system at a flow rate of 0.5 ml/min over 10 minutes. For each experiment, at the end of the process the final reaction mixture was extracted with 5 ml of Acetone: hexane solution (1:1) and carbamazepine remnant concentration was measured by LC-MS, QTOF 6520, manufactured by Agilent.

A short description of data set [3]: Degradation of xylene by sodium hydroxide and hydrogen peroxide with Aliquat 336, with and without added oxygen (GC-FID). As for the experimental part: Experiment A: In the reference experiment, a 50 ml round bottom flask equipped with a magnetic stirrer was charged with 10 ml of water polluted with 100 ppm of xylene. Sodium hydroxide (0.5 g) was rapidly added followed by addition of 0.02 ml of a phase transfer catalyst (Aliquat 336) Next, 1 ml of aqueous hydrogen peroxide (30% solution) was introduced over 5 minutes. After the addition of hydrogen peroxide solution has been completed, the mixture was held under stirring for ten minutes.
Experiment B: To assess the effect of added oxygen, the procedure set forth above was repeated but after the addition of hydrogen peroxide, pure oxygen was bubbled to the system at a flow rate of 1 ml/min over 30 minutes. Upon completion of O2 addition, the mixture was stirred for ten minutes.
For each experiment, samples (0.5 ml) were taken from the reaction mixture at intervals of one minute during the ten minutes hold time and the concentration of remnant xylene was measured by GC-FID. The final reaction mixture was extracted with dichloromethane (10 ml) and analyzed by GC-FID as previously described.

Bounds are passed on as bounds.

Take `CCN(CC)c1ccc2c(-c3ccccc3C(=O)O)c3ccc(=[N+](CC)CC)cc-3oc2c1.[Cl-]` [Rhodamine B]: the “Time to complete decolorization” value in data set [1] is “two”.

For `NC(=O)N1c2ccccc2C=Cc2ccccc21` [carbamazepine], the conversion rate in data set [2] (1 ppm carbamazepine in water) is recorded as ~ 70%. In addition, the conversion in data set [2] (10 ppm carbamazepine in water) and in data set [2] (100 ppm carbamazepine in water) was more than 90% throughout. Besides, in data set [2] (low pollution level of 1 to 10 ppm), the removal rates fell in the range of 70 to 90%.

Xylene: the “Hold time to reach complete oxidation of the pollutant” value in data set [3] (Experiment A: 100 ppm xylene, absence of added oxygen) is “ten”; in data set [3] (Experiment B: 100 ppm xylene, with added oxygen 1 ml/min over 30 minutes) it was “about six”.
